The text below walks through data of US8486996B2, “Aroylfuranes and aroylthiophenes” (Basilea Pharmaceutica AG, priority 2006, dated 2013).

Read-outs that look alike come from different tables or passages of the source.

What all share (type): cell-based
Test [1] is described as follows: Mitochondrial membrane potential, JC-1 (read-out 48 h). As to conditions: PBL, JC-1, 48 h. On the procedure:
(§1) D) Mitochondrial Membrane Potential
(§2) This assay is performed in 96 well tissue culture plates. Appropriate number of cells (adherent cells: 3-5*10^3, suspension cells: 8-10*10^3) are being seeded out in 80 μl complete medium. Adherent cells are incubated for 24 h for proper spreading out before addition of test compounds while suspension cells are immediately treated with test compounds after seeding out. The test compounds are added in 20 μl complete medium containing max 5% DMSO. […] After 24 h or 48 h incubation at culture conditions, 10 μl medium containing JC-1 (Molecular Probes, T-3168) at 2-5 μg/ml are added to each well. The assay plates are then further incubated for 30 minutes and subsequently analyzed with a standard inverted fluorescence microscope by using the FITC and TRITC filters.
(§3) The readout allows the determination of the fraction of cells which show a dissipation of the mitochondrial membrane potential strongly indicating an apoptotic cell death as a function of the treatment. The scores A, B, C and D are explained at the end of the Table.

For test [2], the system named is tumor cells. Described as above. As to conditions: JC-1, 48 h. On the procedure:
as §1, §2, §3

The nature of test [3]: Hoechst 33342 nuclear staining (48 h read-out). As to the method:
(§4) A) Hoechst 33342 Nuclear Staining
(§5) This assay is performed in 96 well tissue culture plates. Appropriate number of cells (adherent cells: 3-5*10^3, suspension cells: 8-10*10^3) are being seeded out in 80 μl complete medium. Adherent cells are incubated for 24 h for proper spreading out before addition of test compounds while suspension cells are immediately treated with test compounds after seeding out. The test compounds are added in 20 μl complete medium containing max 5% DMSO. The final compound concentrations in the assays are in the range of 0.001 μM-10 μM. After 24 h or 48 h incubation at culture conditions, 10 μl medium containing Hoechst 33342 dye (Sigma B-2261) at 2-5 μg/ml are added to each well. The assay plates are then further incubated for 30 minutes and subsequently analyzed with a standard inverted fluorescence microscope.
(§6) The readout allows the determination of the fraction of apoptotic nuclei as well as other morphological criteria specific for apoptosis as a function of the treatment. The scores A, B, C and D are explained at the end of the Table.

Test [4] has as its system tumor cells. Nature of the test: Hoechst 33342 nuclear staining (48 h read-out). As to the method:
as §4, §5, §6

The test system of test [5] is tumor cells. Nature of the test: MTS proliferation assay (72 h read-out). On the procedure:
B) MTS Proliferation Assay
The assay is performed in 96 well tissue culture plates. The cells (range: 1.5*10^3-10^4) are seeded out in 80 μl complete medium 24 h prior to compound treatment. The test compounds are added in 20 μl complete medium containing max 5% DMSO. The final compound concentrations in the assays are in the range of 0.001 μM-10 μM. The assay plates are incubated for 72 h at culture conditions. The MTS reagent is prepared according to the manufacturer's protocol (Promega G1111). 20 μl MTS reagent are added to each well; the assay plates are quickly spun and incubated for another 3 h at culture conditions. Subsequently, the plates are shortly shaked and absorption measured with a microplate-reader at 492 nm. The scores A, B, C and D are explained at the end of the Table.
(In general: Tetrazolium assays rely on reduction of a dye to a coloured formazan, in cell work by metabolically active cells.)

The mark [6] stands for this setting: HeLa cells, read-out: Mitochondrial membrane potential (read-out 48 h) HeLa.
Where [7] appears, read: Jily cells, read-out: Mitochondrial membrane potential (read-out 48 h) Jily.
Setting [8] is: Jurkat cells, read-out: Mitochondrial membrane potential (read-out 48 h) Jurkat.
Where [9] appears, read: MCF7 cells, read-out: Mitochondrial membrane potential (read-out 48 h) MCF7.
[10] abbreviates: MRC5 cells, read-out: Hoechst 33342 nuclear staining EC50, MRC5.
Where [11] appears, read: PBL, read-out: Hoechst 33342 nuclear staining EC50, PBL.
[12] abbreviates: HeLa cells, read-out: Hoechst 33342 nuclear staining EC50, HeLa.
The mark [13] stands for this setting: Jily cells, read-out: Hoechst 33342 nuclear staining EC50, Jily.
Setting [14] is: Jurkat cells, read-out: Hoechst 33342 nuclear staining EC50, Jurkat.
Where [15] appears, read: HT1080 cells, read-out: MTS proliferation assay IC50, HT1080.
Where [16] appears, read: HeLa cells, read-out: MTS proliferation assay IC50, HeLa.
The mark [17] stands for this setting: Jily cells, read-out: MTS proliferation assay IC50, Jily.
Where [18] appears, read: Jurkat cells, read-out: MTS proliferation assay IC50, Jurkat.

For `CCOc1ccc2oc(C(=O)c3cc(F)ccc3N3CC=CCC3)cc2c1` [Example 111], the EC50 in test [1] was more than 1000 nM; in test [2] (setting [6]), 10 to 100 nM; in test [2] (setting [7]), less than 10 nM; in test [2] (setting [8]) it was less than 10 nM; in test [2] (setting [9]), 10 to 100 nM; in test [3] (setting [10]), 10 to 100 nM. The EC50 was more than 1000 nM in test [3] (setting [11]), 10 to 100 nM in test [4] (setting [12]), less than 10 nM in test [4] (setting [13]) and less than 10 nM in test [4] (setting [14]).
Take `O=C(c1cc2cc(O)ccc2o1)c1cc(F)ccc1N1CC=CCC1` [Example 112]: the EC50 in test [1] was more than 1000 nM; in test [2] (setting [6]), 10 to 100 nM; in test [2] (setting [7]) it was 10 to 100 nM; in test [2] (setting [8]) it was 10 to 100 nM; in test [2] (setting [9]), 10 to 100 nM; in test [3] (setting [10]) it was 10 to 100 nM. The EC50 in test [3] (setting [11]) was more than 1000 nM; in test [4] (setting [12]), 10 to 100 nM; in test [4] (setting [13]) it was 10 to 100 nM; in test [4] (setting [14]), 10 to 100 nM.
With `Nc1c(C(=O)c2ccccc2N2CCOCC2)sc2ncc([N+](=O)[O-])cc12` [Example 131], the IC50 in test [5] (setting [15]), in test [5] (setting [16]), in test [5] (setting [17]) and in test [5] (setting [18]) was more than 1000 nM throughout. Besides, the EC50 in test [2] (setting [6]), in test [2] (setting [7]), in test [2] (setting [8]), in test [2] (setting [9]), in test [3] (setting [10]) and in test [4] (setting [12]) was more than 1000 nM in each case. Further, in test [4] (setting [14]), the EC50 is more than 1000 nM.
Turning to `Nc1cnc2sc(C(=O)c3ccccc3N3CCOCC3)c(N)c2c1` [Example 132], the IC50 in test [5] (setting [15]) is more than 1000 nM; in test [5] (setting [16]) it was more than 1000 nM; in test [5] (setting [17]) it was 100 to 1000 nM; in test [5] (setting [18]), 100 to 1000 nM. Further, the EC50 in test [2] (setting [6]), in test [2] (setting [7]), in test [2] (setting [8]), in test [2] (setting [9]), in test [3] (setting [10]) and in test [4] (setting [12]) was more than 1000 nM each time. For the same molecule, in test [4] (setting [14]), the EC50 lay within 100 to 1000 nM.
Turning to `CCCOc1ccccc1C(=O)c1sc2nc(C)c(C)cc2c1N` [Example 133], the IC50 in test [5] (setting [15]), in test [5] (setting [16]), in test [5] (setting [17]) and in test [5] (setting [18]) was 10 to 100 nM throughout. The EC50 is 10 to 100 nM in test [2] (setting [6]); 10 to 100 nM in test [2] (setting [7]); 10 to 100 nM in test [2] (setting [8]); more than 1000 nM in test [2] (setting [9]); 10 to 100 nM in test [3] (setting [10]); 10 to 100 nM in test [4] (setting [12]). Besides, in test [4] (setting [14]), the EC50 is 10 to 100 nM.
Consider `Cc1cc2c(N)c(C(=O)c3ccccc3N3CCOCC3)sc2nc1C` [Example 134], for which the IC50 in test [5] (setting [15]) is 10 to 100 nM; in test [5] (setting [16]), 100 to 1000 nM; in test [5] (setting [17]), 10 to 100 nM; in test [5] (setting [18]), 10 to 100 nM. Also, the EC50 was 10 to 100 nM in test [2] (setting [6]); 10 to 100 nM in test [2] (setting [7]); 10 to 100 nM in test [2] (setting [8]); more than 1000 nM in test [2] (setting [9]); 100 to 1000 nM in test [3] (setting [10]); 100 to 1000 nM in test [4] (setting [12]). For the same molecule, the EC50 in test [4] (setting [14]) is 10 to 100 nM.
Take `Cc1cc2c(N)c(C(=O)c3ccccc3N3CC=CCC3)sc2nc1C` [Example 135]: the IC50 in test [5] (setting [15]) was in the range of 10 to 100 nM; in test [5] (setting [16]), 100 to 1000 nM; in test [5] (setting [17]), 10 to 100 nM; in test [5] (setting [18]) it was 10 to 100 nM. The EC50 was more than 1000 nM in test [2] (setting [6]); 10 to 100 nM in test [2] (setting [7]); 10 to 100 nM in test [2] (setting [8]); more than 1000 nM in test [2] (setting [9]); 100 to 1000 nM in test [3] (setting [10]); 100 to 1000 nM in test [4] (setting [12]). Besides, the EC50 in test [4] (setting [14]) was in the range of 10 to 100 nM.
`N#Cc1cnc2sc(C(=O)c3cc(F)ccc3N3CCOCC3)c(N)c2c1` [Example 136]: the IC50 in test [5] (setting [15]), in test [5] (setting [16]), in test [5] (setting [17]) and in test [5] (setting [18]) was 100 to 1000 nM throughout. Moreover, the EC50 in test [2] (setting [6]) is more than 1000 nM; in test [2] (setting [7]), 100 to 1000 nM; in test [2] (setting [8]), 100 to 1000 nM; in test [2] (setting [9]), more than 1000 nM; in test [3] (setting [10]), more than 1000 nM; in test [4] (setting [12]), more than 1000 nM. For the same molecule, the EC50 in test [4] (setting [14]) lay in the range of 100 to 1000 nM.
